Earlier results, collected in patent US11439715B2, “Compositions and methods to detect GLUA1 in brain and to identify the presence of GLUA1-mediated post-traumatic stress disorder and other neurological disorders” (Neurovation Labs, Inc., priority 2017, dated 2022).
Entries after “also recorded” stand apart in the source; their conditions may differ. Read-outs that look alike come from different tables or passages of the source.

What was measured:
[1] = system: Stress-Enhanced Fear Learning (SEFL), a rodent model of PTSD
GluA1 = settings: stressed rats, metyrapone given before the trauma, measured three weeks after the trauma
GluA2 = settings: stressed and unstressed rats, measured three weeks after the trauma
GluN1 = settings: stressed and unstressed rats, measured three weeks after the trauma

SMILES | percent freezing in Context B on Day 3 (sensitized fear, SEFL) ([1]; intra-BLA infusion post-trauma, compared with stressed controls (ACSF or MSO), hydrobromide) | GluA1 protein levels in the BLA (GluA1:GAPDH optical density ratio) (GluA1) | GluA1 protein levels in the BLA (GluA1:GAPDH optical density ratio) (GluA1; listed as metyrapone) | GluA2 levels in the BLA (GluA2:GAPDH optical density ratio) (GluA2) | GluN1 levels in the BLA (GluN1:GAPDH optical density ratio) (GluN1) | SEFL (stress-enhanced fear learning) ([1]; metyrapone given before the trauma)
Br.C[N+](C)(C)CCCCCNCC12CC3CC(CC(C3)C1)C2.[Br-] [IEM-1460, N,N,H,-Trimethyl-5-[(tricyclo[3.3.1.13,7]dec-1-ylmethyl)amino]-1-pentanaminiumbromide hydrobromide] | significantly reduces freezing in Context B; also recorded: attenuate SEFL | – | – | – | – | –
CC(C)(C(=O)c1cccnc1)c1cccnc1 [Metyrapone] | – | prevented GluA1 increases | significantly higher in stressed rats than in unstressed rats and metyrapone-treated rats | Neither stress nor metyrapone had an effect on GluA2 levels | Neither stress nor metyrapone had an effect on GluN1 levels | effectively preventing SEFL
